Reference: US11040958B2, “Triazole antimicrobial derivative, pharmaceutical composition and use thereof” (priority 2017, dated 2021)
Like-named read-outs stand apart in the source and are kept apart here.

How the values were obtained:
[1] = Solubility test in deionized water (HPLC, external calibration); type: physicochemical; details: for solubility at 30 min: 25 °C, thermodynamic from solid
Experimental: Experimental condition: 25±2° C.
Dissolving medium: deionized water
Experimental method: 1 mg voriconazole and appropriate amount of each compound were weighed, placed in 1 ml deionized water separately, shaken vigorously for 30 s every 5 mins for 30 mins.

[2] = Pharmacokinetics after single intravenous administration in rats (plasma voriconazole); details: for T1/2 / AUClast: rat, in vivo, 2.5 mg/kg
Experimental: Dosage for administration: 2.5 mg/kg (calculated as voriconazole)
Dosing volume for administration: 2.5 ml/kg
Drug concentration: 1 mg/mL (calculated as voriconazole)
Route of administration: tail vein injection Experimental animals: SD rats, SPF grade, weighing 180-220 g, half male and half female; the SD rats were randomized into groups of 6 animals each, three males and three females in each group. Experimental method: Blood samples were collected at different time points after tail vein administration, and the plasma concentrations of voriconazole were measured.

[3] = Solid stability test (25°C, RH 60%, 30 days); type: physicochemical; details: 25°C±2°C, relative humidity 60%±2%
Experimental: Experimental conditions: 25° C.±2° C., relative humidity 60%±2%
Experimental instrument: Agilent 1260 HPLC; chamber for stability test
Experimental method: each compound of the present disclosure was packaged (the inner packaging material was a penicillin bottle; the outer packaging material was a double-layer aluminum foil bag, and a desiccant was added inside and outside the package), placed in the chamber for stability test, at a temperature of 25° C.±2° C. and a relative humidity of 60%±2%. The degradation situation of the compounds for 30 days was examined. The contents of total impurities before and after 30 days of each compound were compared and the results were as follows: […]

[4] = test system: Candida albicans ATCC10231; test: Systemic fungal infection in mice, intravenous administration, survival; type: in vivo; details: ICR mice, tail vein, 5 mg/kg (calculated as voriconazole) once daily for 5 days
Experimental: ICR mice, weighing 18-22 g, male, provided by the Hubei Experimental Animal Center.
The standard strain Candida albicans was purchased from the American Type Culture Collection, and the strain number was ATCC10231.
Before the experiment, a small amount of Candida albicans was picked from the SDA medium preserved at 4° C. by inoculation circle, and inoculated into 1 ml YPD (Yeast Extract Peptone Dextrose Medium, the same below) culture medium, under shake cultivation at 30° C., 200 rpm, activated for 16 hours to make the fungus in the late stage of the exponential growth phase. Blood cell counting plate was used to count. The concentration of the broth was adjusted to 1*10^3-5*10^3 CFU/ml with RPMI1640 (Roswell Park Memorial Institute 1640, the same below) culture medium. The Candida albicans monoclone on the SDA plate was picked and inoculated into 1 ml YPD medium, cultured at 35° C., 200 rpm for 16 hours to the late exponential growth phase, 1% of which was then inoculated in fresh medium for 6 hours, centrifuged at 1000×g for 5 mins, washed three times with saline until the supernatant was colorless, while hemocytometer was used to count. The cell concentration was adjusted to 5*10^6/ml. The tail vein injection of 0.1 ml/10 g was carried out to cause a systemic fungal infection in mice. The mice were randomized into groups of 10 each. Since voriconazole was insoluble in vehicle (physiological saline), the mice of the voriconazole group in the test were injected a commercially available voriconazole (Pfizer, product lot number Z467001), that is, sulfobutyl ether-β-cyclodextrin used as a solubilizer, while other groups used physiological saline as a solvent. After establishing a systemic fungal infection model in mice for 2 hours, each administration group was administered with 5 mg/kg (calculated as voriconazole) drug in the tail vein, with the volume for administration of 0.1 ml/10 g. The mice in the model group were administered 0.1 ml/10 g of 0.9% sodium chloride solution, once daily, for 5 consecutive days. The death situation of the mice was inspected and the survival time was recorded. After a total of 7 days of observation, all dead mice were treated with fire using ethanol.

SMILES | Content increase of total impurity (25° C., placed for 30 days) [3] [%] | Solubility ([1]; deionized water, 25±2°C) [mg/mL] | T1/2 [2] | further results
C[C@@H](c1ncncc1F)[C@](O)(Cn1cncn1)c1ccc(F)cc1F [Voriconazole, reference compound] | – | – | – | solubility at 30 min ([1]; deionized water, 25±2°C): < 1 mg/mL; plasma concentration of voriconazole ([2]; control group of voriconazole dissolved in physiological saline, tail vein injection, SD rats): not detected
CC(OC(=O)N(C)c1ncccc1COC(=O)C(N)Cc1ccc(O)cc1)[n+]1cnn(CC(O)(c2ccc(F)cc2F)C(C)c2ncncc2F)c1.Cl.Cl.[Cl-] (centres unmarked) [QR16018] | 1.15 | >50 | – | –
CNCC(=O)OCc1cccnc1N(C)C(=O)OC(C)[n+]1cnn(C[C@](O)(c2ccc(F)cc2F)[C@@H](C)c2ncncc2F)c1.O=S(=O)([O-])O (some centres unmarked) [SF16020] | 0.62 | – | – | –
CC(OC(=O)NCC(=O)O)[n+]1cnn(C[C@](O)(c2ccc(F)cc2F)[C@@H](C)c2ncncc2F)c1 (some centres unmarked) [QR16038] | – | – | similar | –
CC(OC(=O)N(C)c1ncccc1COC(=O)[C@@H](N)CCCN)[n+]1cnn(C[C@](O)(c2ccc(F)cc2F)[C@@H](C)c2ncncc2F)c1 (some centres unmarked) [SF16002] | 0.67 | – | – | solubility at 30 min ([1]; deionized water, 25±2°C): > 50 mg/mL
CC(OC(=O)OCCOCCOCCOP(=O)(O)O)[n+]1cnn(C[C@](O)(c2ccc(F)cc2F)[C@@H](C)c2ncncc2F)c1 (some centres unmarked) [QR16033] | – | >50 | similar | –
CC(OC(=O)N(C)c1ncccc1COC(=O)[C@@H](N)CCCN)[n+]1cnn(C[C@](O)(c2ccc(F)cc2F)[C@@H](C)c2ncncc2F)c1.Cl.Cl.Cl.[I-] (some centres unmarked) [QR16006] | 1.14 | >50 | – | –
CC(OC(=O)N(C)c1ncccc1COC(=O)[C@@H](N)[C@@H](C)O)[n+]1cnn(C[C@](O)(c2ccc(F)cc2F)[C@@H](C)c2ncncc2F)c1.O=S(=O)([O-])O (some centres unmarked) [SF16016] | 0.49 | – | – | –
CC(OC(=O)N(C)c1ncccc1COC(=O)[C@@H](N)CO)[n+]1cnn(C[C@](O)(c2ccc(F)cc2F)[C@@H](C)c2ncncc2F)c1.O=S(=O)([O-])O (some centres unmarked) [SF16015] | 0.32 | – | – | –
CC(OC(=O)N(C)c1ncccc1COC(=O)[C@@H](N)CC(N)=O)[n+]1cnn(C[C@](O)(c2ccc(F)cc2F)[C@@H](C)c2ncncc2F)c1.O=S(=O)([O-])O (some centres unmarked) [SF16014] | 0.36 | – | – | –
CC(OC(=O)OCCS)[n+]1cnn(C[C@](O)(c2ccc(F)cc2F)[C@@H](C)c2ncncc2F)c1 (some centres unmarked) [Compound 16031] | 0.97 | – | – | –
CC(OC(=O)OCCCCCOP(=O)(O)O)[n+]1cnn(C[C@](O)(c2ccc(F)cc2F)[C@@H](C)c2ncncc2F)c1 (some centres unmarked) [QR16025] | 1.57 | >50 | similar | –
CNCC[C@H](N)C(=O)OCc1cccnc1N(C)C(=O)OC(C)[n+]1cnn(C[C@](O)(c2ccc(F)cc2F)[C@@H](C)c2ncncc2F)c1 (some centres unmarked) [QR16021] | 1.14 | – | – | solubility at 30 min ([1]; deionized water, 25±2°C): > 50 mg/mL; AUClast ([2]; both, SD, iv): 7.056 ± 2.532 µg·h/mL
CC(OC(=O)OCCCCOP(=O)(O)O)[n+]1cnn(C[C@](O)(c2ccc(F)cc2F)[C@@H](C)c2ncncc2F)c1 (some centres unmarked) [QR16024] | 2.84 | >50 | similar | –
CC(OC(=O)OCCOP(=O)(O)O)[n+]1cnn(C[C@](O)(c2ccc(F)cc2F)[C@@H](C)c2ncncc2F)c1 (some centres unmarked) [QR16046] | 0.79 | – | – | solubility at 30 min ([1]; deionized water, 25±2°C): > 50 mg/mL
CNCCC[C@H](N)C(=O)OCc1cccnc1N(C)C(=O)OC(C)[n+]1cnn(C[C@](O)(c2ccc(F)cc2F)[C@@H](C)c2ncncc2F)c1.[Cl-] (some centres unmarked) [QR16019] | 0.88 | >50 | – | –
CC(OC(=O)SC[C@H](N)C(=O)O)[n+]1cnn(C[C@](O)(c2ccc(F)cc2F)[C@@H](C)c2ncncc2F)c1 (some centres unmarked) [QR16034] | – | – | similar | Solubility [1]: 12.5 mg/mL
CC(OC(=O)N(C)c1ncccc1COC(=O)[C@@H](N)CCC(N)=O)[n+]1cnn(C[C@](O)(c2ccc(F)cc2F)[C@@H](C)c2ncncc2F)c1.O=S(=O)([O-])O (some centres unmarked) [SF16013] | 0.48 | – | – | –
CC(OC(=O)N(C)c1ncccc1COC(=O)[C@@H](N)CCCN)[n+]1cnn(C[C@](O)(c2ccc(F)cc2F)[C@@H](C)c2ncncc2F)c1.O=[N+]([O-])[O-] (some centres unmarked) [QR16012] | 0.92 | >50 | – | –
CC(OC(=O)NCC[C@H](N)C(=O)O)[n+]1cnn(C[C@](O)(c2ccc(F)cc2F)[C@@H](C)c2ncncc2F)c1.Cl.[Cl-] (some centres unmarked) [QR16039] | 1.22 | – | similar | –
CC(OC(=O)N(C)c1ncccc1COC(=O)CN)[n+]1cnn(C[C@](O)(c2ccc(F)cc2F)[C@@H](C)c2ncncc2F)c1.O=S(=O)([O-])O (some centres unmarked) [SF16001] | 0.37 | >50 | – | –
CC(OC(=O)N(C)c1ncccc1COC(=O)[C@@H](N)CCCCN)[n+]1cnn(C[C@](O)(c2ccc(F)cc2F)[C@@H](C)c2ncncc2F)c1 (some centres unmarked) [SF16017] | 0.46 | – | – | –
CC(OC(=O)N(C)c1ncccc1COC(=O)[C@@H](N)CCCN)[n+]1cnn(C[C@](O)(c2ccc(F)cc2F)[C@@H](C)c2ncncc2F)c1.O=P([O-])(O)O (some centres unmarked) [QR16011] | 0.96 | >50 | – | –
CC(OC(=O)N(C)c1ncccc1COC(=O)C[C@H](N)C(=O)O)[n+]1cnn(C[C@](O)(c2ccc(F)cc2F)[C@@H](C)c2ncncc2F)c1.[Cl-] (some centres unmarked) [QR16003] | 1.37 | >50 | similar | –
C[C@@H](c1ncncc1F)[C@](O)(Cn1c[n+](CC(=O)O)cn1)c1ccc(F)cc1F [QR16043] | – | – | similar | –
CC(OC(=O)N(C)c1ncccc1COC(=O)CCC(=O)[O-])[n+]1cnn(C[C@](O)(c2ccc(F)cc2F)[C@@H](C)c2ncncc2F)c1.[Cl-].[Na+] (some centres unmarked) [QR16004] | – | >50 | – | AUClast [2]: 9.586 ± 2.352 µg·h/mL; survival rate of mice, day 1 ([4]; day 1): 100%; survival rate of mice, day 2 ([4]; day 2): 100%; survival rate of mice, day 3 ([4]; day 3): 100%; survival rate of mice, day 4 ([4]; day 4): 90%; survival rate of mice, day 5 ([4]; day 5): 90%; survival rate of mice, day 6 ([4]; day 6): 80%
